The record followed here is the supplement of paper PMC10307832.

What all share (test): relative viability (nuclei count vs DMSO), 5 days (fraction); higher = more cells survive
Compound in experiment [1]: C1=CC=C(C(=C1)C2=CC=C(C=C2)C3=CSC4=C3C(=C(C(=O)N4)C#N)O)O + CC(=O)Nc1cccc(-n2c(=O)n(C3CC3)c(=O)c3c(Nc4ccc(I)cc4F)n(C)c(=O)c(C)c32)c1 [Trametinib] (partner 0.02 µM)
The gist of the method: (§1)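 Relative viability was taken as the ratio of nuclei in treated wells to nuclei in vehicle wells. Lung cancer cell lines in 1536-well plates received compounds by pin tool one day after seeding, either one drug alone or a fixed anchor-drug dose plus five library-drug doses (not always all listed) in √10 steps. Nuclei were counted on 4× images after 5 days of treatment, and values are medians of duplicate plates.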

Compound in experiment [2]: C1=CC=C(C(=C1)C2=CC=C(C=C2)C3=CSC4=C3C(=C(C(=O)N4)C#N)O)O + CS(=O)(=O)N1CCN(Cc2cc3nc(-c4cccc5[nH]ncc45)nc(N4CCOCC4)c3s2)CC1 [Pictilisib] (partner 1 µM)
In a few lines: as §1

Compound in the experiment “TGX 221 + Alpelisib”: CC1=CN2C(=O)C=C(N=C2C(=C1)C(C)NC3=CC=CC=C3)N4CCOCC4 [TGX 221] + Cc1nc(NC(=O)N2CCC[C@H]2C(N)=O)sc1-c1ccnc(C(C)(C)C(F)(F)F)c1 [Alpelisib] (partner 2 µM)
The gist of the method: as §1

Compound in experiment [3]: O=C(CCCCCCNC(=O)c1cnc(N(c2ccccc2)c2ccccc2)nc1)NO [Ricolinostat] + N=C(N)NC(=N)NCCc1ccccc1 [Phenformin] (partner 250 µM)
In a few lines: as §1

Turning to NCI-H2009, the relative viability amounted to 0.226 in experiment [1] (first compound 0.08 µM); 0.268 in experiment [1] (first compound 0.253 µM); 0.333 in experiment [1] (first compound 0.8 µM); 0.249 in experiment [1] (first compound 2.53 µM); 0.295 in experiment [1] (first compound 8 µM); 0.893 in experiment [2] (first compound 0.08 µM). The relative viability was determined as 0.829 in experiment [2] (first compound 0.253 µM); 0.771 in experiment [2] (first compound 0.8 µM); 0.84 in experiment [2] (first compound 2.53 µM); 0.787 in experiment [2] (first compound 8 µM); 1.16 in the experiment with TGX 221 + Alpelisib (first compound 0.08 µM); 1.07 with TGX 221 + Alpelisib (first compound 0.253 µM). Moreover, the relative viability with TGX 221 + Alpelisib (first compound 0.8 µM) was 1.1; in the experiment with TGX 221 + Alpelisib (first compound 2.53 µM), 0.907; in the experiment with TGX 221 + Alpelisib (first compound 8 µM), 0.733; in experiment [3] (first compound 0.08 µM), 0.455; in experiment [3] (first compound 0.253 µM), 0.46; in experiment [3] (first compound 0.8 µM), 0.446. Further, the relative viability in experiment [3] (first compound 2.53 µM) is 0.43.
Turning to NCI-H2023, the relative viability in experiment [1] (first compound 0.08 µM) amounted to 0.364; in experiment [1] (first compound 0.253 µM), 0.584; in experiment [1] (first compound 0.8 µM), 0.708; in experiment [1] (first compound 2.53 µM) it was 0.535; in experiment [1] (first compound 8 µM), 0.466; in experiment [2] (first compound 0.08 µM), 0.185. Moreover, the relative viability in experiment [2] (first compound 0.253 µM) turned out to be 0.215; in experiment [2] (first compound 0.8 µM), 0.263; in experiment [2] (first compound 2.53 µM), 0.204; in experiment [2] (first compound 8 µM), 0.22; with TGX 221 + Alpelisib (first compound 0.08 µM), 0.599; in the experiment with TGX 221 + Alpelisib (first compound 0.253 µM), 0.452. Besides, the relative viability with TGX 221 + Alpelisib (first compound 0.8 µM) was found to be 0.524; in the experiment with TGX 221 + Alpelisib (first compound 2.53 µM), 0.311; in the experiment with TGX 221 + Alpelisib (first compound 8 µM) it was 0.268; in experiment [3] (first compound 0.253 µM), 0.403; in experiment [3] (first compound 0.8 µM), 0.382; in experiment [3] (first compound 2.53 µM), 0.344.
For NCI-H2085, the relative viability in experiment [1] (first compound 0.08 µM) came to 0.55; in experiment [1] (first compound 0.253 µM), 0.772; in experiment [1] (first compound 0.8 µM), 0.615; in experiment [1] (first compound 2.53 µM), 0.484; in experiment [1] (first compound 8 µM), 0.598; in experiment [2] (first compound 0.08 µM), 0.414. The relative viability in experiment [2] (first compound 0.253 µM) stood at 0.517; in experiment [2] (first compound 0.8 µM) it was 0.528; in experiment [2] (first compound 2.53 µM), 0.418; in experiment [2] (first compound 8 µM), 0.399; with TGX 221 + Alpelisib (first compound 0.08 µM), 0.94; in the experiment with TGX 221 + Alpelisib (first compound 0.253 µM), 0.689. For the same cell line, the relative viability with TGX 221 + Alpelisib (first compound 0.8 µM) was found to be 0.57; in the experiment with TGX 221 + Alpelisib (first compound 2.53 µM), 0.424; with TGX 221 + Alpelisib (first compound 8 µM) it was 0.406; in experiment [3] (first compound 0.253 µM), 0.705; in experiment [3] (first compound 0.8 µM), 0.66; in experiment [3] (first compound 2.53 µM), 0.58.
As for NCI-H2087, the relative viability in experiment [1] (first compound 0.08 µM) stood at 0.283; in experiment [1] (first compound 0.253 µM), 0.285; in experiment [1] (first compound 0.8 µM) it was 0.206; in experiment [1] (first compound 2.53 µM), 0.208; in experiment [1] (first compound 8 µM), 0.202; in experiment [2] (first compound 0.08 µM), 0.783. Also, the relative viability in experiment [2] (first compound 0.253 µM) came out at 0.892; in experiment [2] (first compound 0.8 µM), 0.956; in experiment [2] (first compound 2.53 µM), 0.848; in experiment [2] (first compound 8 µM) it was 0.772; in the experiment with TGX 221 + Alpelisib (first compound 0.08 µM) it was 0.978; with TGX 221 + Alpelisib (first compound 0.253 µM), 1.13. Moreover, the relative viability with TGX 221 + Alpelisib (first compound 0.8 µM) amounted to 1.13; with TGX 221 + Alpelisib (first compound 2.53 µM), 1.12; with TGX 221 + Alpelisib (first compound 8 µM), 1.31; in experiment [3] (first compound 0.253 µM), 0.441; in experiment [3] (first compound 0.8 µM), 0.405; in experiment [3] (first compound 2.53 µM) it was 0.239.
As for NCI-H2126, the relative viability in experiment [1] (first compound 0.08 µM) was 0.611; in experiment [1] (first compound 0.253 µM), 0.51; in experiment [1] (first compound 0.8 µM), 0.571; in experiment [1] (first compound 2.53 µM), 0.54; in experiment [1] (first compound 8 µM) it was 0.476; in experiment [2] (first compound 0.08 µM), 0.455. Also, the relative viability in experiment [2] (first compound 0.253 µM) turned out to be 0.498; in experiment [2] (first compound 0.8 µM), 0.478; in experiment [2] (first compound 2.53 µM), 0.515; in experiment [2] (first compound 8 µM), 0.503; in the experiment with TGX 221 + Alpelisib (first compound 0.08 µM), 0.708; in the experiment with TGX 221 + Alpelisib (first compound 0.253 µM), 0.652. In addition, the relative viability turned out to be 0.611 in the experiment with TGX 221 + Alpelisib (first compound 0.8 µM); 0.58 with TGX 221 + Alpelisib (first compound 2.53 µM); 0.617 in the experiment with TGX 221 + Alpelisib (first compound 8 µM); 0.533 in experiment [3] (first compound 0.253 µM); 0.521 in experiment [3] (first compound 0.8 µM); 0.499 in experiment [3] (first compound 2.53 µM).
In the case of NCI-H2170, the relative viability in experiment [1] (first compound 0.08 µM) worked out at 0.87; in experiment [1] (first compound 0.253 µM), 0.979; in experiment [1] (first compound 0.8 µM) it was 0.865; in experiment [1] (first compound 2.53 µM), 0.986; in experiment [1] (first compound 8 µM), 0.778; in experiment [2] (first compound 0.08 µM), 0.337. In addition, the relative viability in experiment [2] (first compound 0.253 µM) turned out to be 0.304; in experiment [2] (first compound 0.8 µM) it was 0.273; in experiment [2] (first compound 2.53 µM) it was 0.3; in experiment [2] (first compound 8 µM), 0.358; with TGX 221 + Alpelisib (first compound 0.08 µM), 0.754; in the experiment with TGX 221 + Alpelisib (first compound 0.253 µM), 0.704. In addition, the relative viability with TGX 221 + Alpelisib (first compound 0.8 µM) worked out at 0.747; with TGX 221 + Alpelisib (first compound 2.53 µM) it was 0.7; with TGX 221 + Alpelisib (first compound 8 µM), 0.682; in experiment [3] (first compound 0.08 µM), 0.394; in experiment [3] (first compound 0.253 µM) it was 0.426; in experiment [3] (first compound 0.8 µM), 0.407. Also, the relative viability in experiment [3] (first compound 2.53 µM) amounted to 0.373.
With NCI-H2228, the relative viability turned out to be 0.342 in experiment [1] (first compound 0.08 µM); 0.459 in experiment [1] (first compound 0.253 µM); 0.544 in experiment [1] (first compound 0.8 µM); 0.458 in experiment [1] (first compound 2.53 µM); 0.465 in experiment [1] (first compound 8 µM); 0.326 in experiment [2] (first compound 0.08 µM). Also, the relative viability was determined as 0.4 in experiment [2] (first compound 0.253 µM); 0.479 in experiment [2] (first compound 0.8 µM); 0.365 in experiment [2] (first compound 2.53 µM); 0.344 in experiment [2] (first compound 8 µM); 0.693 with TGX 221 + Alpelisib (first compound 0.08 µM); 0.468 with TGX 221 + Alpelisib (first compound 0.253 µM). For the same cell line, the relative viability was determined as 0.551 with TGX 221 + Alpelisib (first compound 0.8 µM); 0.523 with TGX 221 + Alpelisib (first compound 2.53 µM); 0.403 with TGX 221 + Alpelisib (first compound 8 µM); 0.255 in experiment [3] (first compound 0.08 µM); 0.341 in experiment [3] (first compound 0.253 µM); 0.355 in experiment [3] (first compound 0.8 µM). Further, the relative viability in experiment [3] (first compound 2.53 µM) worked out at 0.342.
